Earlier results, collected in patent US20100009005A1, “Novel acetysalicylic acid formulations” (Flamel Technologies ,S.A., priority 2005, published 2010).

CS(=O)(=O)c1ccc(C2=C(c3ccccc3)C(=O)OC2)cc1 [rofecoxib]
time of peak plasma concentrations (after oral administration): 2 to 3 h
half life (in vivo): about 17 hours
